Laboratory results as given in patent US20070015662A1, “Herbicide/safener combination” (Bayer CropScience GmbH, priority 2005, published 2007).

How the values were obtained:
[1] = tested on: Sinapis alba, Chrysanthemum segetum, Avena sativa, Stellaria media, Echinochloa crus-galli, Lolium multiflorum, Setaria viridis, Abutilon theophrasti …; experiment: Pre-emergence action against weeds (greenhouse pot test, optical scoring); format: in vivo, monocotyledonous and dicotyledonous weed plants; details: pre-emergence method; 500 g or less of herbicide (A) per hectare; herbicide/safener combination with safeners II-1, II-9, III-1, b-11, b-14, IX-A3; scored after 3 to 4 weeks
From the text: Seeds or rhizome pieces of monocotyledonous and dicotyledonous weed plants were placed in sandy loam soil in cardboard pots and covered with soil. The active compounds (A) and (B), formulated in the form of wettable powders or emulsion concentrates, were then applied to the surface of the covering soil in various dosages as aqueous suspensions or emulsions using a water application rate of 300 to 800 I/ha (converted).
After the treatment, the pots were placed in a greenhouse and kept under good growth conditions for the weeds. Optical scoring of the damage to the plants or emerged plants was carried out after emergence of the test plants after a trial period of 3 to 4 weeks, in comparison to untreated controls. As shown by the results, the tested herbicide/safener combinations have good herbicidal pre-emergence activity against a broad spectrum of weed grasses and broad-leaved weeds.

[2] = tested on: Sinapis alba, Echinochloa crus-galli, Lolium multiflorum, Chrysanthemum segetum, Setaria viridis, Abutilon theophrasti, Amaranthus retroflexus, Panicum …; experiment: Post-emergence action against weeds (greenhouse pot test, visual scoring); format: in vivo, monocotyledonous and dicotyledonous weeds; details: post-emergence method, three-leaf stage; 500 g or less of herbicide (A) per hectare; herbicide/safener combination with safeners II-1, II-9, III-1, b-11, b-14, IX-A3; scored after about three to four weeks
Description: Seeds or rhizome pieces of monocotyledonous and dicotyledonous weeds were placed into sandy loam soil in plastic pots, covered with soil and grown in a greenhouse under good growth conditions. Three weeks after sowing, the test plants were treated at the three-leaf stage. The compounds according to the invention, formulated as wettable powders or as emulsion concentrates, were sprayed onto the green parts of the plants at various dosages using a water application rate of 300 to 800 I/ha (converted). The test plants were stood in the greenhouse under optimum growth conditions for about three to four weeks, and the action of the preparations was then scored visually in comparison to untreated controls. Post-emergence, too, the herbicide/safener combinations according to the invention have good herbicidal activity against a broad spectrum of economically important weed grasses and broad-leaved weeds.

[3] = tested on: cotton, oilseed rape, sugar beet and Gramineae crops such as barley, wheat, rye, millet, corn or rice; experiment: Compatibility with crop plants (greenhouse, visual scoring); format: in vivo; details: pre-emergence method or post-emergence method; herbicide/safener combination with safeners II-1, II-9, III-1, b-11, b-14, IX-A3; four to five weeks after application
From the text: In further greenhouse trials, seeds of a relatively large number of crop plants and weeds were placed into sandy loam soil and covered with soil. Some of the pots were immediately treated as described in Section 1, the others were placed in a greenhouse until the plants had developed two to three true leaves and were then sprayed with various dosages of the herbicide/safener combinations according to the invention, as described in Section 2.

| SMILES | herbicidal activity against harmful plants (optical scoring of damage vs untreated controls) [1] | herbicidal activity against harmful plants (visual scoring vs untreated controls) [2] | damage to crop plants (visual scoring) [3] | melting point |
| --- | --- | --- | --- | --- |
| CC1(C)CC(S(=O)(=O)Cc2c(F)cccc2F)=NO1 [I-3.1] | very good herbicidal activity | very good herbicidal activity | did not cause any damage | – |
| CCC1(C)CC(S(=O)(=O)Cc2cccc3c2OCCO3)=NO1 (stereo not shown) [I-21.2] | very good herbicidal activity | very good herbicidal activity | did not cause any damage | – |
| CCC1(C)CC(S(=O)(=O)Cc2c(C(F)(F)F)nn(C)c2OC(F)F)=NO1 (stereo not shown) [I-67.2] | very good herbicidal activity | very good herbicidal activity | did not cause any damage | – |
| CCC1(C)CC(S(=O)(=O)Cc2cc(F)ccc2F)=NO1 (stereo not shown) [I-2.2] | very good herbicidal activity | very good herbicidal activity | did not cause any damage | – |
| CC1(C)CC(S(=O)(=O)Cc2cc3c(cc2Cl)OCO3)=NO1 [I-52.1, 3-{[(6-Chloro-1,3-benzodioxol-5-yl)methyl]sulfonyl}-5,5-dimethyl-4,5-dihydroisoxazole] | very good herbicidal activity | very good herbicidal activity | did not cause any damage | 170 °C |
| Cn1nc(C(F)(F)F)c(CS(=O)(=O)C2=NOC(C)(C)C2)c1Cl [I-77.1] | very good herbicidal activity | very good herbicidal activity | did not cause any damage | – |
| CCC1(C)CC(S(=O)(=O)Cc2cccc3c2OCC3)=NO1 (stereo not shown) [I-24.2] | very good herbicidal activity | very good herbicidal activity | did not cause any damage | – |
| CC1(C)CC(S(=O)(=O)Cc2cccc3c2OC(F)(F)C(F)(F)O3)=NO1 [I-22.1] | very good herbicidal activity | very good herbicidal activity | did not cause any damage | – |
| Cn1nc(C(F)(F)F)c(CS(=O)(=O)C2=NOC(C)(C)C2)c1OC(F)F [I-67.1] | very good herbicidal activity | very good herbicidal activity | did not cause any damage | – |
| CCC1(C)CC(S(=O)(=O)Cc2cccc3c2OC(F)(F)C(F)(F)O3)=NO1 (stereo not shown) [I-22.2] | very good herbicidal activity | very good herbicidal activity | did not cause any damage | – |
| CC1(C)CC(S(=O)(=O)Cc2cccc3c2OCCO3)=NO1 [I-21.1] | very good herbicidal activity | very good herbicidal activity | did not cause any damage | – |
| CC1(C)CC(S(=O)(=O)Cc2cccc3c2OCC3)=NO1 [I-24.1] | very good herbicidal activity | very good herbicidal activity | did not cause any damage | – |
| CCC1(C)CC(S(=O)(=O)Cc2cccc3c2OC(F)(F)O3)=NO1 (stereo not shown) [I-23.2] | very good herbicidal activity | very good herbicidal activity | did not cause any damage | – |
| CC1(C)CC(S(=O)(=O)Cc2cccc3c2OC(F)(F)O3)=NO1 [I-23.1] | very good herbicidal activity | very good herbicidal activity | did not cause any damage | – |
| CCC1(C)CC(S(=O)(=O)Cc2cc3c(cc2Cl)OCO3)=NO1 (stereo not shown) [I-52.2] | very good herbicidal activity | very good herbicidal activity | did not cause any damage | – |
| CCC1(C)CC(S(=O)(=O)Cc2c(F)cccc2F)=NO1 (stereo not shown) [I-3.2] | very good herbicidal activity | very good herbicidal activity | did not cause any damage | – |
